Converted amounts (≈) assume the structure as drawn. The source made the active and inactive calls. The rule behind the calls is not given here.
Columns and labels:
Klebsiella aerogenes = experiment: Bactericidal activity against Enterobacter aerogenes 15630 assessed as inhibition of bacterial growth incubated for 16 to 20 hrs; format: functional; conditions: time 16-20 hrs
Vibrio vulnificus [1] = experiment: Antibacterial activity against Vibrio vulnificus 204 assessed as inhibition of bacterial growth incubated for 16 to 20 hrs in presence of human serum; format: functional; conditions: time 16-20 hrs
Salmonella enterica [2] = experiment: Bactericidal activity against Salmonella enterica 15455 assessed as inhibition of bacterial growth incubated for 16 to 20 hrs in presence of human serum; format: functional; conditions: time 16-20 hrs
Klebsiella pneumoniae [3] = experiment: Antibacterial activity against Klebsiella pneumoniae 10692 assessed as inhibition of bacterial growth incubated for 16 to 20 hrs; format: functional; conditions: time 16-20 hrs
Salmonella enterica [4] = experiment: Bactericidal activity against Salmonella enterica 15455 assessed as inhibition of bacterial growth incubated for 16 to 20 hrs; format: functional; conditions: time 16-20 hrs
Yersinia enterocolitica [5] = experiment: Bactericidal activity against Yersinia enterocolitica 13999 assessed as inhibition of bacterial growth incubated for 16 to 20 hrs; format: functional; conditions: time 16-20 hrs
Klebsiella pneumoniae [6] = experiment: Bactericidal activity against Klebsiella pneumoniae BAA 2473 assessed as inhibition of bacterial growth in presence of 0.1 microg/ml of trypsin (reference value: 1.56 to 3.13 microM); format: functional
Escherichia coli [7] = experiment: Antibacterial activity against Escherichia coli 10675 assessed as inhibition of bacterial growth incubated for 16 to 20 hrs; format: functional; conditions: time 16-20 hrs
Acinetobacter baumannii [8] = experiment: Antibacterial activity against Acinetobacter baumannii 10591 assessed as inhibition of bacterial growth incubated for 16 to 20 hrs; format: functional; conditions: time 16-20 hrs
Vibrio vulnificus [9] = experiment: Bactericidal activity against Vibrio vulnificus 204 assessed as inhibition of bacterial growth incubated for 16 to 20 hrs in presence of human serum; format: functional; conditions: time 16-20 hrs
Enterococcus faecium [10] = experiment: Antibacterial activity against Enterococcus faecium 10067 assessed as inhibition of bacterial growth incubated for 16 to 20 hrs in presence of human serum; format: functional; conditions: time 16-20 hrs
Klebsiella pneumoniae [11] = experiment: Bactericidal activity against Klebsiella pneumoniae BAA 2473 assessed as inhibition of bacterial growth in presence of 1 microg/ml of trypsin (reference value: 1.56 to 3.13 microM); format: functional
Klebsiella pneumoniae [12] = experiment: Bactericidal activity against Klebsiella pneumoniae BAA 2473 assessed as inhibition of bacterial growth in presence of 0.1 microg/ml of pepsin (reference value: 1.56 to 3.13 microM); format: functional
Klebsiella pneumoniae [13] = experiment: Antibacterial activity against Klebsiella pneumoniae BAA 2473 assessed as inhibition of bacterial growth in presence of 0.1 microg/ml of proteinase K (reference value: 1.56 to 3.13 microM); format: functional
Klebsiella pneumoniae [14] = experiment: Bactericidal activity against Klebsiella pneumoniae BAA 2473 assessed as inhibition of bacterial growth in presence of 10 microg/ml of chymotrypsin (reference value: 1.56 to 3.13 microM); format: functional
[15] = test system: Staphylococcus haemolyticus; experiment: Antibacterial activity against Staphylococcus haemolyticus 15237 assessed as inhibition of bacterial growth incubated for 16 to 20 hrs; format: functional; conditions: time 16-20 hrs
Enterococcus faecium [16] = experiment: Antibacterial activity against Enterococcus faecium 10067 assessed as inhibition of bacterial growth incubated for 16 to 20 hrs; format: functional; conditions: time 16-20 hrs
Rhizopus arrhizus [17] = experiment: Fungicidal activity against Rhizopus oryzae 34550 assessed as inhibition of fungal growth incubated for 72 hrs; format: functional
Pseudomonas aeruginosa [18] = experiment: Bactericidal activity against Pseudomonas aeruginosa 19660 assessed as inhibition of bacterial growth incubated for 16 to 20 hrs in presence of human serum; format: functional; conditions: time 16-20 hrs
Salmonella typhimurium = experiment: Bactericidal activity against Salmonella typhimurium DT104 assessed as inhibition of bacterial growth incubated for 16 to 20 hrs; format: functional, Salmonella enterica subsp. enterica serovar Typhimurium; conditions: Salmonella enterica, time 16-20 hrs
Klebsiella pneumoniae [19] = experiment: Bactericidal activity against Klebsiella pneumoniae BAA 2473 assessed as inhibition of bacterial growth in presence of 0.1 microg/ml of proteinase K (reference value: 1.56 to 3.13 microM); format: functional
Acinetobacter baumannii [20] = experiment: Bactericidal activity against Acinetobacter baumannii 10591 assessed as inhibition of bacterial growth incubated for 16 to 20 hrs in presence of human serum; format: functional; conditions: time 16-20 hrs
Klebsiella pneumoniae [21] = experiment: Bactericidal activity against Klebsiella pneumoniae BAA 2473 assessed as inhibition of bacterial growth incubated for 16 to 20 hrs; format: functional; conditions: time 16-20 hrs
Vibrio vulnificus [22] = experiment: Antibacterial activity against Vibrio vulnificus 204 assessed as inhibition of bacterial growth incubated for 16 to 20 hrs; format: functional; conditions: time 16-20 hrs
Vibrio vulnificus [23] = experiment: Bactericidal activity against Vibrio vulnificus 204 assessed as inhibition of bacterial growth incubated for 16 to 20 hrs; format: functional; conditions: time 16-20 hrs
Rhizopus arrhizus [24] = experiment: Antifungal activity against Rhizopus oryzae 34550 assessed as inhibition of fungal growth incubated for 16 to 20 hrs in presence of human serum; format: functional; conditions: time 16-20 hrs
Klebsiella pneumoniae [25] = experiment: Bactericidal activity against Klebsiella pneumoniae TL 297 assessed as inhibition of bacterial growth incubated for 16 to 20 hrs in presence of human serum; format: functional; conditions: time 16-20 hrs
Yersinia enterocolitica [26] = experiment: Antibacterial activity against Yersinia enterocolitica 13999 assessed as inhibition of bacterial growth incubated for 16 to 20 hrs; format: functional; conditions: time 16-20 hrs
Klebsiella pneumoniae [27] = experiment: Bactericidal activity against Klebsiella pneumoniae BAA 2473 assessed as inhibition of bacterial growth in presence of 10 microg/ml of proteinase K (reference value: 1.56 to 3.13 microM); format: functional
Klebsiella pneumoniae [28] = experiment: Bactericidal activity against Klebsiella pneumoniae BAA 2473 assessed as inhibition of bacterial growth in presence of 10 microg/ml of trypsin (reference value: 1.56 to 3.13 microM); format: functional
Acinetobacter baumannii [29] = experiment: Antibacterial activity against Acinetobacter baumannii 10591 assessed as inhibition of bacterial growth incubated for 16 to 20 hrs in presence of human serum; format: functional; conditions: time 16-20 hrs
Klebsiella pneumoniae [30] = experiment: Antibacterial activity against Klebsiella pneumoniae BAA 2473 assessed as inhibition of bacterial growth in presence of 0.1 microg/ml of chymotrypsin (reference value: 1.56 to 3.13 microM); format: functional
Enterococcus faecalis = experiment: Bactericidal activity against Enterococcus faecalis 10066 assessed as inhibition of bacterial growth incubated for 16 to 20 hrs; format: functional; conditions: time 16-20 hrs
Klebsiella pneumoniae [31] = experiment: Antibacterial activity against Klebsiella pneumoniae BAA 2473 assessed as inhibition of bacterial growth in presence of 10 microg/ml of pepsin (reference value: 1.56 to 3.13 microM); format: functional
Escherichia coli [32] = experiment: Antibacterial activity against Escherichia coli 10675 assessed as inhibition of bacterial growth incubated for 16 to 20 hrs in presence of human serum; format: functional; conditions: time 16-20 hrs
Klebsiella pneumoniae [33] = experiment: Antibacterial activity against Klebsiella pneumoniae BAA 2473 assessed as inhibition of bacterial growth in presence of 1 microg/ml of chymotrypsin (reference value: 1.56 to 3.13 microM); format: functional
Klebsiella pneumoniae [34] = experiment: Antibacterial activity against Klebsiella pneumoniae BAA 2473 assessed as inhibition of bacterial growth in presence of 10 microg/ml of chymotrypsin (reference value: 1.56 to 3.13 microM); format: functional
Pseudomonas aeruginosa [35] = experiment: Bactericidal activity against Pseudomonas aeruginosa 19660 assessed as inhibition of bacterial growth incubated for 16 to 20 hrs; format: functional; conditions: time 16-20 hrs
Klebsiella pneumoniae [36] = experiment: Antibacterial activity against Klebsiella pneumoniae BAA 2473 assessed as bacterial eradication measured at 10 hrs; format: functional, organism-based
Klebsiella pneumoniae [37] = experiment: Antibacterial activity against Klebsiella pneumoniae BAA 2473 assessed as inhibition of bacterial growth in presence of doxycycline; format: functional
Klebsiella pneumoniae [38] = experiment: Antimicrobial activity against drug-resistant Klebsiella pneumoniae BAA 2473 infected in C57BL/6 mouse assessed as reduction in bacterial load at 5 mg/kg, po administered for 2 hrs and measured at 24 hrs; format: functional, organism-based; conditions: time 26.0 hrs

H-FIHHIIGGLFSAGKAIHRLIRRRRR-OH
MBC (Klebsiella aerogenes): 6.25 µM | MIC (Vibrio vulnificus [1]): > 100 µM | MBC (Salmonella enterica [2]): 100 µM | MIC (Klebsiella pneumoniae [3]): 0.78 µM | MBC (Salmonella enterica [4]): < 1.56 µM | MBC (Yersinia enterocolitica [5]): 3.13 µM | MBC (Klebsiella pneumoniae [6]): 3.13 µM | MIC (Escherichia coli [7]): 6.25 µM | MIC (Acinetobacter baumannii [8]): 1.56 µM | MBC (Vibrio vulnificus [9]): > 100 µM | MIC (Enterococcus faecium [10]): 100 µM | MBC (Klebsiella pneumoniae [11]): > 100 µM | MBC (Klebsiella pneumoniae [12]): 3.13 µM | MIC (Klebsiella pneumoniae [13]): 1.56 µM | MBC (Klebsiella pneumoniae [14]): > 100 µM | MIC [15]: 1.56 µM | MIC (Enterococcus faecium [16]): 0.39 µM | MFC (Rhizopus arrhizus [17]): 1.56 µM | MBC (Pseudomonas aeruginosa [18]): 100 µM | MBC (Salmonella typhimurium): 6.25 µM | MBC (Klebsiella pneumoniae [19]): 1.56 µM | MBC (Acinetobacter baumannii [20]): 100 µM | MBC (Klebsiella pneumoniae [21]): 3.13 µM | MIC (Vibrio vulnificus [22]): 3.13 µM | MBC (Vibrio vulnificus [23]): 3.13 µM | MIC (Rhizopus arrhizus [24]): > 25 µM | MBC (Klebsiella pneumoniae [25]): > 100 µM | MIC (Yersinia enterocolitica [26]): 3.13 µM | MBC (Klebsiella pneumoniae [27]): > 100 µM | MBC (Klebsiella pneumoniae [28]): > 100 µM | MIC (Acinetobacter baumannii [29]): 100 µM | MIC (Klebsiella pneumoniae [30]): 1.56 µM | MBC (Enterococcus faecalis): 3.13 µM | MIC (Klebsiella pneumoniae [31]): > 100 µM | MIC (Escherichia coli [32]): > 100 µM | MIC (Klebsiella pneumoniae [33]): > 100 µM | MIC (Klebsiella pneumoniae [34]): > 100 µM

CC(C)C[C@H](NC(=O)[C@@H](C)NC(=O)[C@@H](CCCCN)NC(=O)[C@H](CC(C)C)NC(=O)[C@@H](CC(C)C)NC(=O)[C@@H](CCCCN)NC(=O)[C@H](CCCCN)NC(=O)[C@@H](CC(C)C)NC(=O)[C@H](N)Cc1ccccc1)C(=O)N[C@H](Cc1ccccc1)C(=O)N[C@H](CO)C(=O)N[C@@H](C)C(=O)N1CCC[C@@H]1C(=O)N[C@H](CCCCN)C(=O)N[C@@H](C)C(=O)N[C@H](CC(C)C)C(=O)N[C@H](CCCCN)C(=O)N[C@@H](CCCNC(=N)N)C(=O)N[C@H](CC(C)C)C(=O)N[C@H](CC(C)C)C(=O)N[C@@H](CCCNC(=N)N)C(=O)N[C@H](CCCNC(=N)N)C(=O)N[C@H](CCCNC(=N)N)C(=O)N[C@@H](CCCNC(=N)N)C(=O)N[C@@H](CCCNC(=N)N)C(=O)O
MBC (Klebsiella aerogenes): 3.13 µM (≈ 9.64 µg/mL) | MIC (Vibrio vulnificus [1]): 12.5 µM | MBC (Salmonella enterica [2]): 0.78 µM | MIC (Klebsiella pneumoniae [3]): 6.25 µM (≈ 19.2 µg/mL) | MBC (Salmonella enterica [4]): 3.13 µM (≈ 9.64 µg/mL) | MBC (Yersinia enterocolitica [5]): 3.13 µM (≈ 9.64 µg/mL) | MBC (Klebsiella pneumoniae [6]): 1.56 µM | MIC (Escherichia coli [7]): 1.56 µM (≈ 4.8 µg/mL) | MIC (Acinetobacter baumannii [8]): 3.13 µM (≈ 9.64 µg/mL) | MBC (Vibrio vulnificus [9]): 12.5 µM | MIC (Enterococcus faecium [10]): 100 µM | MBC (Klebsiella pneumoniae [11]): 1.56 µM | MBC (Klebsiella pneumoniae [12]): 1.56 µM | MBC (Pseudomonas aeruginosa [35]): 3.13 µM (≈ 9.64 µg/mL) | Activity (Klebsiella pneumoniae [36]): Active | MIC (Klebsiella pneumoniae [13]): 0.78 µM | MBC (Klebsiella pneumoniae [14]): 0.78 µM | MIC [15]: 1.56 µM (≈ 4.8 µg/mL) | MIC (Enterococcus faecium [16]): 3.13 µM (≈ 9.64 µg/mL) | MIC (Klebsiella pneumoniae [37]): 0.39 µM | MFC (Rhizopus arrhizus [17]): 1.56 µM (≈ 4.8 µg/mL) | MBC (Pseudomonas aeruginosa [18]): 3.13 µM | MBC (Salmonella typhimurium): 3.13 µM (≈ 9.64 µg/mL) | MBC (Klebsiella pneumoniae [19]): 1.56 µM | MBC (Acinetobacter baumannii [20]): 3.13 µM | MBC (Klebsiella pneumoniae [21]): 25 µM (≈ 77 µg/mL) | MIC (Vibrio vulnificus [22]): 6.25 µM (≈ 19.2 µg/mL) | MBC (Vibrio vulnificus [23]): 12.5 µM (≈ 38.5 µg/mL) | MIC (Rhizopus arrhizus [24]): 6.25 µM | MBC (Klebsiella pneumoniae [25]): 1.56 µM | MIC (Yersinia enterocolitica [26]): 3.13 µM (≈ 9.64 µg/mL) | Activity (Klebsiella pneumoniae [38]): Active | MBC (Klebsiella pneumoniae [27]): 1.56 µM | MBC (Klebsiella pneumoniae [28]): 1.56 µM | MIC (Acinetobacter baumannii [29]): 1.56 µM | MIC (Klebsiella pneumoniae [30]): 0.78 µM | MBC (Enterococcus faecalis): 12.5 µM (≈ 38.5 µg/mL) | MIC (Klebsiella pneumoniae [31]): 0.78 µM | MIC (Escherichia coli [32]): 0.78 µM | MIC (Klebsiella pneumoniae [33]): 0.78 µM | MIC (Klebsiella pneumoniae [34]): 0.78 µM
